Experiments:
pitted morningglory = experiment: Test E pre-/postemergence herbicide test; assay type: in vivo, Ipomoea lacunosa
Method in brief: (§1)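 Each species was compared with untreated controls 12 to 14 days after greenhouse application and assigned a visual score from 0 (no effect) to 100 (complete control). Applications were preemergence to seeded soil or postemergence to 1- to 4-leaf plants, using a solvent-plus-surfactant formulation.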

mustard = experiment: Test E pre-/postemergence herbicide test; assay type: in vivo, Brassica nigra
Method in brief: as §1

Italian ryegrass [1] = experiment: Test E pre-/postemergence herbicide test; assay type: in vivo, Lolium multiflorum
Method in brief: as §1

common chickweed = experiment: Test E pre-/postemergence herbicide test; assay type: in vivo, Stellaria media
Method in brief: as §1

tropical spiderwort = experiment: Test E pre-/postemergence herbicide test; assay type: in vivo, Commelina benghalensis
Method in brief: as §1

annual bluegrass = experiment: Test E pre-/postemergence herbicide test; assay type: in vivo, Poa annua
Method in brief: as §1

Canada horseweed = experiment: Test E pre-/postemergence herbicide test; assay type: in vivo, Erigeron Canadensis
Method in brief: as §1

common mallow = experiment: Test E pre-/postemergence herbicide test; assay type: in vivo, Malva sylvestris
Method in brief: as §1

blackgrass = experiment: Test C postemergence herbicide test; assay type: in vivo, Alopecurus myosuroides
Description: (§2) At the same time, plants selected from these crop and weed species and also winter barley (Hordeum vulgare L.), blackgrass (Alopecurus myosuroides Huds.), canarygrass (Phalaris minor Retz.), chickweed (Stellaria media (L.) Vill.), downy bromegrass (Bromus tectorum L.), green foxtail (Setaria viridis (L.) Beauv.), Italian ryegrass (Lolium multiflorum Lam.), wheat (Triticum aestivum L.), wild oat (Avenafatua L.) and windgrass (Apera spica-venti (L.) Beauv.) were treated with postemergence applications of some of the test chemicals formulated in the same manner. Plants ranged in height from 2 to 18 cm (1- to 4-leaf stage) for postemergence treatments. Plant species in the flooded paddy test consisted of rice (Oryza sativa), smallflower umbrella sedge (Cyperus difformis L.), ducksalad (Heteranthera limosa (Sw.) Willd.) and barnyardgrass (Echinochloa crus-galli (L.) Beauv.) grown to the 2-leaf stage for testing. Treated plants and controls were maintained in a greenhouse for 12 to 14 days, after which time all species were compared to controls and visually evaluated. Plant response ratings, summarized in Table C, are based on a scale of 0 to 100 where 0 is no effect and 100 is complete control. A dash (-) response means no test result.

downy bromegrass = experiment: Test C postemergence herbicide test; assay type: in vivo, Bromus tectorum
Description: as §2

Italian ryegrass [2] = experiment: Test C postemergence herbicide test; assay type: in vivo, Lolium multiflorum
Description: as §2

wild oat = experiment: Test C postemergence herbicide test; assay type: in vivo, Avenafatua
Description: as §2

windgrass = experiment: Test C postemergence herbicide test; assay type: in vivo, Apera spica-venti
Description: as §2

[3] = Postemergence, 500 g ai/ha, scale 0 to 100
[4] = Postemergence, 250 g ai/ha, scale 0 to 100
[5] = Preemergence, 62 g ai/ha, scale 0 to 100
[6] = Preemergence, 125 g ai/ha, scale 0 to 100
[7] = Preemergence, 250 g ai/ha, scale 0 (no effect) to 100 (complete control)
[8] = Preemergence, 500 g ai/ha, scale 0 (no effect) to 100 (complete control)
[9] = postemergence, 125 g ai/ha, scale 0 to 100
[10] = postemergence, 62 g ai/ha, scale 0 to 100
[11] = Postemergence, 250 g ai/ha, scale 0 to 100, 0 no effect, 100 complete control
[12] = postemergence, 31 g ai/ha, scale 0 to 100

Question: What does the source list for `CCn1nc(C(C)(C)C)cc1C(=O)Nc1cccc(C(N)=O)n1` [Compound 162, 6-[[[3-(1,1-dimethylethyl)-1-ethyl-1H-pyrazol-5-yl]carbonyl]amino]-2-pyridinecarboxamide]?
Answer: Plant response rating, Morningglory (pitted morningglory; [3]): 90; Plant response rating, Morningglory (pitted morningglory; [4]): 80; Plant response rating, Morningglory (pitted morningglory; [5]): 30; Plant response rating, Morningglory (pitted morningglory; [6]): 60; Plant response rating, Morningglory (pitted morningglory; [7]): 85; Plant response rating, Morningglory (pitted morningglory; [8]): 100; Plant response rating, Morningglory (pitted morningglory; [9]): 70; Plant response rating, Morningglory (pitted morningglory; [10]): 30; Plant response rating, Black Mustard (mustard; [3]): 95; Plant response rating, Black Mustard (mustard; [4]): 90; Plant response rating, Black Mustard (mustard; [5]): 20; Plant response rating, Black Mustard (mustard; [6]): 50; Plant response rating, Black Mustard (mustard; [7]): 80; Plant response rating, Black Mustard (mustard; [8]): 100; Plant response rating, Black Mustard (mustard; [9]): 75; Plant response rating, Black Mustard (mustard; [10]): 60; Plant response rating, Ryegrass, Italian (Italian ryegrass [1]; [3]): 100; Plant response rating, Ryegrass, Italian (Italian ryegrass [1]; [4]): 98; Plant response rating, Ryegrass, Italian (Italian ryegrass [1]; [5]): 50; Plant response rating, Ryegrass, Italian (Italian ryegrass [1]; [6]): 95; Plant response rating, Ryegrass, Italian (Italian ryegrass [1]; [7]): 95; Plant response rating, Ryegrass, Italian (Italian ryegrass [1]; [8]): 95; Plant response rating, Ryegrass, Italian (Italian ryegrass [1]; [9]): 95; Plant response rating, Ryegrass, Italian (Italian ryegrass [1]; [10]): 50; Plant response rating, Chickweed (common chickweed; [4]): 100; Plant response rating, Chickweed (common chickweed; [6]): 95; Plant response rating, Chickweed (common chickweed; [7]): 95; Plant response rating, Chickweed (common chickweed; [8]): 95; Plant response rating, Chickweed (common chickweed; [9]): 100; Plant response rating, Chickweed (common chickweed; [10]): 80; Plant response rating, Spiderwort (tropical spiderwort; [3]): 65; Plant response rating, Spiderwort (tropical spiderwort; [4]): 60; Plant response rating, Spiderwort (tropical spiderwort; [5]): 20; Plant response rating, Spiderwort (tropical spiderwort; [6]): 40; Plant response rating, Spiderwort (tropical spiderwort; [7]): 75; Plant response rating, Spiderwort (tropical spiderwort; [8]): 75; Plant response rating, Spiderwort (tropical spiderwort; [9]): 10; Plant response rating, Spiderwort (tropical spiderwort; [10]): 0; Plant response rating, Bluegrass (annual bluegrass; [3]): 98; Plant response rating, Bluegrass (annual bluegrass; [4]): 98; Plant response rating, Bluegrass (annual bluegrass; [5]): 100; Plant response rating, Bluegrass (annual bluegrass; [6]): 100; Plant response rating, Bluegrass (annual bluegrass; [7]): 100; Plant response rating, Bluegrass (annual bluegrass; [8]): 100; Plant response rating, Bluegrass (annual bluegrass; [9]): 95; Plant response rating, Bluegrass (annual bluegrass; [10]): 90; Plant response rating, Horseweed (Canada horseweed; [3]): 100; Plant response rating, Horseweed (Canada horseweed; [4]): 100; Plant response rating, Horseweed (Canada horseweed; [5]): 100; Plant response rating, Horseweed (Canada horseweed; [6]): 100; Plant response rating, Horseweed (Canada horseweed; [7]): 100; Plant response rating, Horseweed (Canada horseweed; [8]): 100; Plant response rating, Horseweed (Canada horseweed; [9]): 70; Plant response rating, Horseweed (Canada horseweed; [10]): 70; Plant response rating, Mallow (common mallow; [3]): 100; Plant response rating, Mallow (common mallow; [4]): 80; Plant response rating, Mallow (common mallow; [5]): 50; Plant response rating, Mallow (common mallow; [6]): 70; Plant response rating, Mallow (common mallow; [7]): 100; Plant response rating, Mallow (common mallow; [8]): 100; Plant response rating, Mallow (common mallow; [9]): 60; Plant response rating, Mallow (common mallow; [10]): 40

Question: Which results are given for `CCn1nc(C(C)(C)C)cc1C(=O)Nc1cccc(OC(F)F)c1` [Compound 332]?
Answer: Blackgrass plant response rating (blackgrass; [3]): 70; Plant response rating, Blackgrass (blackgrass; [11]): 100; Plant response rating, Blackgrass (blackgrass; [9]): 70; Plant response rating, Blackgrass (blackgrass; [10]): 60; Bromegrass, Downy plant response rating (downy bromegrass; [3]): 65; Plant response rating, Bromegrass, Downy (downy bromegrass; [11]): 50; Plant response rating, Bromegrass, Downy (downy bromegrass; [9]): 40; Plant response rating, Bromegrass, Downy (downy bromegrass; [10]): 35; Ryegrass, Italian plant response rating (Italian ryegrass [2]; [3]): 70; Plant response rating, Ryegrass, Italian (Italian ryegrass [2]; [11]): 70; Plant response rating, Ryegrass, Italian (Italian ryegrass [2]; [9]): 60; Plant response rating, Ryegrass, Italian (Italian ryegrass [2]; [10]): 60; Oat, Wild plant response rating (wild oat; [3]): 70; Plant response rating, Oat, Wild (wild oat; [11]): 70; Plant response rating, Oat, Wild (wild oat; [9]): 65; Plant response rating, Oat, Wild (wild oat; [10]): 50; Windgrass plant response rating (windgrass; [3]): 75; Plant response rating, Windgrass (windgrass; [11]): 65; Plant response rating, Windgrass (windgrass; [9]): 60; Plant response rating, Windgrass (windgrass; [10]): 35

Question: Which results are given for `CCn1nc(C(C)(C)C)cc1C(=O)Nc1cc(C(=S)N(C)C)ccn1` [Compound 334]?
Answer: Plant response rating, Blackgrass (blackgrass; [11]): 95; Plant response rating, Blackgrass (blackgrass; [9]): 95; Plant response rating, Blackgrass (blackgrass; [12]): 75; Plant response rating, Blackgrass (blackgrass; [10]): 90; Plant response rating, Bromegrass, Downy (downy bromegrass; [11]): 45; Plant response rating, Bromegrass, Downy (downy bromegrass; [9]): 35; Plant response rating, Bromegrass, Downy (downy bromegrass; [12]): 20; Plant response rating, Bromegrass, Downy (downy bromegrass; [10]): 30; Plant response rating, Ryegrass, Italian (Italian ryegrass [2]; [11]): 45; Plant response rating, Ryegrass, Italian (Italian ryegrass [2]; [9]): 35; Plant response rating, Ryegrass, Italian (Italian ryegrass [2]; [10]): 30; Plant response rating, Oat, Wild (wild oat; [11]): 95; Plant response rating, Oat, Wild (wild oat; [9]): 75; Plant response rating, Oat, Wild (wild oat; [10]): 55; Plant response rating, Windgrass (windgrass; [11]): 75; Plant response rating, Windgrass (windgrass; [9]): 60; Plant response rating, Windgrass (windgrass; [10]): 60
